{
  "source": "patent US20260138970A1",
  "about": "“MODULATORS OF THE CALCIUM SIGNALING CASCADE” (FONDAZIONE TELETHON ETS, priority 2022, published 2026)",
  "assay_type_in_all_cases": "cell-based",
  "key": {"T267M ITPR1": {"target": "T1, T267M ITPR1 (Homo sapiens, UniProt Q14643, T267M)", "T1 construct": "expressed in transfected cells", "T1 sequence (Q14643 whole entry T267M)": "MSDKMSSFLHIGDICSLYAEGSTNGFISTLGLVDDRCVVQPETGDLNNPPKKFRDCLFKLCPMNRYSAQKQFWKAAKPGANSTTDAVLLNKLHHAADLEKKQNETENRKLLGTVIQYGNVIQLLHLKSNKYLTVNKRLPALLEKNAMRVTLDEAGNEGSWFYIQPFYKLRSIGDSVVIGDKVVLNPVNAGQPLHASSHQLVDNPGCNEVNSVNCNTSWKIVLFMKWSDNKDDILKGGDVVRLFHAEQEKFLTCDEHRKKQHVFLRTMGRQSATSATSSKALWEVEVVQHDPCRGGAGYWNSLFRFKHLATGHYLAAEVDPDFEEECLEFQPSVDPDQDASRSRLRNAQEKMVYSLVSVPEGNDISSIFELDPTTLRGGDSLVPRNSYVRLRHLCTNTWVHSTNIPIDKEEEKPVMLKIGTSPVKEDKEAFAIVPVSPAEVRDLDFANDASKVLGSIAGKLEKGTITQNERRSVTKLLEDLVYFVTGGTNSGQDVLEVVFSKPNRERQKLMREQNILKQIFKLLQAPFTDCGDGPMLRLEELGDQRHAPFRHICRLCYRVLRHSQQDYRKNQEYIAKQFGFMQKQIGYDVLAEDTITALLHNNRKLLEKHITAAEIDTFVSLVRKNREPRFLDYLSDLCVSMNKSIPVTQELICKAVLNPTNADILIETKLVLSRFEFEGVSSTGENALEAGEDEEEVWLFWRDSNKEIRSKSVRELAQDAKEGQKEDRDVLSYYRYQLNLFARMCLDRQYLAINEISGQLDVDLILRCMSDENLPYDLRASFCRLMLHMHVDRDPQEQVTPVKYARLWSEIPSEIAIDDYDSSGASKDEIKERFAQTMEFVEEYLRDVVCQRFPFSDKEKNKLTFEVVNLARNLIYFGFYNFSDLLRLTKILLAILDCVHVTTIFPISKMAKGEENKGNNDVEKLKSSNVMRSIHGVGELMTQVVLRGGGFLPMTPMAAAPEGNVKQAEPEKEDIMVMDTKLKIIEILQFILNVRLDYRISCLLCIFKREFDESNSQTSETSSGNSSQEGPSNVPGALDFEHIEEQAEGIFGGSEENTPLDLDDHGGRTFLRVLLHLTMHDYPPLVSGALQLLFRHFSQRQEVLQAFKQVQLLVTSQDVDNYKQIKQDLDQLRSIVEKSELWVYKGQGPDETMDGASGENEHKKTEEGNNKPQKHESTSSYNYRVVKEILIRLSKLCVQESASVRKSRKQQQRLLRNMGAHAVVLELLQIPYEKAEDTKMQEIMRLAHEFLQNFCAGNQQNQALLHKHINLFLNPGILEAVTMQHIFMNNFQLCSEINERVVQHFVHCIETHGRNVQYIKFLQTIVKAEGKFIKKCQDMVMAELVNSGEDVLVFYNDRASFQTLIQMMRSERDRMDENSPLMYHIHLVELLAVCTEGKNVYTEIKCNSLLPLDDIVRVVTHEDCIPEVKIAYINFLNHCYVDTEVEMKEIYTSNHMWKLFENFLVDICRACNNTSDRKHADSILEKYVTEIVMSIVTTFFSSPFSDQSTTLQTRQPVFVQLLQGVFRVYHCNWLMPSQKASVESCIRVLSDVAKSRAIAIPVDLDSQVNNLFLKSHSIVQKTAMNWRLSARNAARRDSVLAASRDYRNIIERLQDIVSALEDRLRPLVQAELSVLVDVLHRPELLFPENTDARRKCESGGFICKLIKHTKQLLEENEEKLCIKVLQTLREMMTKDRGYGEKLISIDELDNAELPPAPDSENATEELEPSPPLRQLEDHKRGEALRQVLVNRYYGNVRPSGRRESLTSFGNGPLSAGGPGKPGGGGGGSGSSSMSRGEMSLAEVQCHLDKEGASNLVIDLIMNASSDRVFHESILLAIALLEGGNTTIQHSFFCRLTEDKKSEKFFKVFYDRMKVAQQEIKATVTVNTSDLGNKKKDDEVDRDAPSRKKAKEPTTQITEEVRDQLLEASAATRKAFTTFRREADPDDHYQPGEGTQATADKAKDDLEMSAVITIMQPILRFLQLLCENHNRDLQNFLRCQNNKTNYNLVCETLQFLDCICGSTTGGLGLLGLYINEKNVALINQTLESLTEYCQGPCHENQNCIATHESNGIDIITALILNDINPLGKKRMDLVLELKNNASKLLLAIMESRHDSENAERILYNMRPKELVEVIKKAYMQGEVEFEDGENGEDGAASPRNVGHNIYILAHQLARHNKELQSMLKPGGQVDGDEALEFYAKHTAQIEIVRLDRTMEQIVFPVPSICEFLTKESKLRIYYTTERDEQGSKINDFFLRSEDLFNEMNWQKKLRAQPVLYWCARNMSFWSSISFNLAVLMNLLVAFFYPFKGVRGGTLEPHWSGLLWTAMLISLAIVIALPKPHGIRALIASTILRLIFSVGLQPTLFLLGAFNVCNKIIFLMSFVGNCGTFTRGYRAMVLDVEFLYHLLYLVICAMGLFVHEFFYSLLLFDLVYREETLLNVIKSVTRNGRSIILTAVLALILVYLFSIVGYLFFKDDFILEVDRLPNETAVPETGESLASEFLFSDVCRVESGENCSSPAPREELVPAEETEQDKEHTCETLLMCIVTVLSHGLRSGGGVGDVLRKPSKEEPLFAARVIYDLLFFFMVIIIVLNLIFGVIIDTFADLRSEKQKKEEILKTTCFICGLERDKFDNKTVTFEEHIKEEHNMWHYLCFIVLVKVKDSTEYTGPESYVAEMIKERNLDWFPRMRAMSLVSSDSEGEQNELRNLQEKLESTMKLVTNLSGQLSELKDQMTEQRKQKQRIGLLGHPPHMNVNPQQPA", "test": "Fluo-4 Ca2+ assay, UTP, HEK293 cells with inducible T267M ITPR1", "conditions": "UTP 5 μM; compound 10 μM; tetracycline-induced; FIG. 6B-C", "procedure": "HEK293 cells stably transfected with tetracycline-inducible expression of wild type or mutant (R269W or T267M) ITPR1, kindly provided by Prof. S. R. Wayne Chen (University of Calgary; ref. 14), were cultured in a mixture of Dulbecco's Modified Eagle Medium (DMEM, high glucose version) and Ham's F12 (1:1) and supplemented with 10% fetal bovine serum, 2 mM L-glutamine, 100 U/ml penicillin and 100 μg/ml streptomycin. Cells were selected with 0.5 mg/ml hygromycin B and induced with 1 μg/ml tetracycline.\nExperiments were performed using the microplate reader described for the HS-YFP assay. FRT and HEK293 cells were cultured until confluence in 96-well microplates (3603, Corning). Cells were washed 2 times with PBS (150 μl/wash) and then loaded for 1 h at 37° C. with 5 μM Fluo-4/AM (Thermo Fisher Scientific; catalog number: F23917) in PBS containing 10 mM glucose, 0.5 mM sulfinpyrazone, and 1% fetal bovine serum. After loading, cells were washed 2 times with PBS-glucose-sulfinpyrazone (150 μl/wash) and incubated for 20 min at 37° C. with 60 μl of PBS plus 10 mM glucose and 0.5 mM sulfinpyrazone containing compounds of interest at 10 μM final concentration or vehicle. Each well was assayed individually. Fluo-4 fluorescence (500 nm excitation, 535 nm emission) was detected every 200 ms for 16-40 s. Two seconds after the start of fluorescence recording, the reader automatically injected 165 μl of a modified PBS containing 136 mM KCl instead of NaCl. This solution also contained 10 mM glucose, 0.5 mM sulfinpyrazone, and UTP or SLIGR-NH2 (CAS #171436-38-7) at a final concentration that depended on the specific cell type. For UTP we used: 0.25 μM for FRT; 1 μM for HEKR2; 5 μM for HEK3XKO, HEKR1, and HEKR3. For SLIGR-NH2 we used: 10 μM for HEKR1; 4 μM for HEKR2. These concentrations were chosen to elicit ˜20% of maximal effect based on UTP and SLIGR-NH2 dose-response relationships. […] The Fluo-4 fluorescence increase was quantified using a procedure compiled in Microsoft Excel after background subtraction and normalization for the initial value measured before UTP addition."}, "ENaC": {"test_system": "ENaC", "test": "Short-circuit current recordings on human cultured bronchial epithelia, ENaC function", "conditions": "apical addition; ARN7149 10 μM, ARN11391 20 μM, ARN4550 20 μM, UTP 10 nM; FIG. 9", "excerpt": "In a further experimental setting, snapwell supports (cc3801, Corning) carrying differentiated bronchial epithelia generated in vitro were mounted in a vertical chamber resembling an Ussing system with internal fluid circulation (EM-CSYS-8, Physiologic Instruments, San Diego, CA, USA). The apical and basolateral hemichambers were filled with a solution containing (in mM): 126 NaCl, 0.38 KH2PO4, 2.13 K2HPO4, 1 MgSO4, 1 CaCl2), 24 NaHCO3, and 10 glucose. Both sides were continuously bubbled with a gas mixture containing 5% CO2 and 95% air. The temperature of the solution was kept at 37° C. throughout the experiment.\nDuring recordings, the following molecules (in addition to ARN7149, ARN11391, and ARN4550) were added in the apical solution: elastase (SE2093002, Serva); UTP (U6625, Merck); amiloride (A7410, Merck). Transepithelial voltage was short-circuited with a voltage-clamp (VCC MC8, Physiologic Instruments, San Diego, CA, USA) connected to the apical and basolateral chambers via Ag—AgCl electrodes and agar bridges (2% agar in 1 M KCl). The offset between voltage electrodes and the fluid resistance were cancelled before experiments. The resulting short-circuited current from each channel was recorded on a personal computer with the Acquire & Analize 2.3 software (Physiologic Instruments, San Diego, CA, USA)."}, "CCK1 receptor": {"target": "T2, CCK1 receptor (Homo sapiens, UniProt P32238)", "T2 construct": "host or cells: Chem-1 cells", "T2 sequence (P32238 1-428)": "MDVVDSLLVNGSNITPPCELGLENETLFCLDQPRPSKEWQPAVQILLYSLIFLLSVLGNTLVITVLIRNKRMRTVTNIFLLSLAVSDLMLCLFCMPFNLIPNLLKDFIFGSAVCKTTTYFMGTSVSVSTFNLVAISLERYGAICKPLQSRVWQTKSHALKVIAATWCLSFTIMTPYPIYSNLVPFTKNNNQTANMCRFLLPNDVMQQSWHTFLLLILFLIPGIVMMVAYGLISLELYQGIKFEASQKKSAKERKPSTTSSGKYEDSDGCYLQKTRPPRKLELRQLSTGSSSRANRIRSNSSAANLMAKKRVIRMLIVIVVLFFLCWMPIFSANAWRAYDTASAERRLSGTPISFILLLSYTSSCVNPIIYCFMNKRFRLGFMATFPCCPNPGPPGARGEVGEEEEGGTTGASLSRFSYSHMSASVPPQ", "test": "Fluo-4 Ca2+ assay in Chem-1 cells expressing CCK1 receptor", "conditions": "CCK8s 0.25 nM; vs vehicle (DMSO); FIG. 10", "procedure": "Chem-1 cells expressing the CCK1 receptor (HTS184RTA, Merck) were cultured in Dulbecco's MEM/F12 (ECM0090L, EuroClone) with 10% fetal bovine serum, 2 mM L-glutamine, 100 U/ml penicillin and 100 μg/ml streptomycin.\nIn a further experimental setting, experiments were performed using as above the FLUOstar Omega (BMG Labtech, Offenburg, Germany) microplate reader equipped with syringe pumps and optical excitation/emission filters optimized for yellow fluorescent protein (YFP) fluorescence (ET500/20× and ET535/30m, respectively; Chroma Technology Corporation). FRT and Chem-1 cells were cultured until confluence in 96-well microplates (cc3603, Corning). Cells were washed 2 times with PBS (150 μl/wash) and then loaded for 1 h at 37° C. with 5 μM Fluo-4/AM (Thermo Fisher Scientific; catalog number: F23917) in PBS containing 10 mM glucose, 0.5 mM sulfinpyrazone, and 1% fetal bovine serum. […] Fluo-4 fluorescence (500 nm excitation, 535 nm emission) was detected every 200 ms for 16-40 s. Two seconds after the start of fluorescence recording, the reader automatically injected 165 μl of a modified PBS containing 136 mM KCl instead of NaCl. […] The Fluo-4 fluorescence increase was quantified using a procedure compiled in Microsoft Excel after background subtraction and normalization for the initial value measured before UTP or CCK8s addition."}},
  "data": [
    {"smiles": "OCc1ccccc1CN(Cc1ccnc(N2CCCC2)n1)c1ccc(F)cc1", "note": "[ARN4550, [2-[[4-Fluoro-N-[(2-pyrrolidin-1-ylpyrimidin-4-yl)methyl]anilino]methyl]phenyl]methanol]", "values": [
      {"measurement": "potentiation of Ca2+ mobilization elicited by UTP, T267M mutant", "setting": "T267M ITPR1", "result": "also effective although less than ARN11391"},
      {"measurement": "ENaC current decay (ENaC inhibition), short-circuit current", "setting": "ENaC", "result": "caused ENaC current decay"},
      {"measurement": "effect on CCK8s-induced Ca2+ mobilization", "setting": "CCK1 receptor", "result": "significantly enhanced"}
    ]},
    {"smiles": "CCc1cc(-c2cc(NCCCOc3ccccc3C)nc(N)n2)n(C)n1", "note": "[ARN7149, 6-(3-Ethyl-1-methyl-1H-pyrazol-5-yl)-N^4-(3-(o-tolyloxy)propyl)pyrimidine-2,4-diamine]", "values": [
      {"measurement": "potentiation of Ca2+ mobilization elicited by UTP, T267M mutant", "setting": "T267M ITPR1", "result": "also effective although less than ARN11391"},
      {"measurement": "ENaC current decay (ENaC inhibition), short-circuit current", "setting": "ENaC", "result": "caused ENaC current decay"},
      {"measurement": "effect on CCK8s-induced Ca2+ mobilization", "setting": "CCK1 receptor", "result": "lack of activity"}
    ]},
    {"smiles": "CCn1nc2c(c1C(=O)Nc1ccccc1OCC1CCCCO1)CCCC2", "note": "(stereo not shown) [ARN11391, 2-Ethyl-N-[2-(tetrahydropyran-2-ylmethoxy)phenyl]-4,5,6,7-tetrahydroindazole-3-carboxamide]", "values": [
      {"measurement": "potentiation of Ca2+ mobilization elicited by UTP, T267M mutant", "setting": "T267M ITPR1", "result": "marked potentiation"}
    ]}
  ]
}
